Among the data in patent US20230135635A1, “INHIBITORS OF ULK1/2 AND METHODS OF USING SAME” (SALK INSTITUTE FOR BIOLOGICAL STUDIES, priority 2020, published 2023) are IC50 values, retold here.

The experiment concerns the target T1, recombinant human ULK1 protein (1-649) (Homo sapiens, UniProt O75385).
T1 construct: recombinant human ULK1 protein (1-649, SignalChem #U01-11G); purchased SignalChem U01-11G
T1 sequence (O75385 1-649): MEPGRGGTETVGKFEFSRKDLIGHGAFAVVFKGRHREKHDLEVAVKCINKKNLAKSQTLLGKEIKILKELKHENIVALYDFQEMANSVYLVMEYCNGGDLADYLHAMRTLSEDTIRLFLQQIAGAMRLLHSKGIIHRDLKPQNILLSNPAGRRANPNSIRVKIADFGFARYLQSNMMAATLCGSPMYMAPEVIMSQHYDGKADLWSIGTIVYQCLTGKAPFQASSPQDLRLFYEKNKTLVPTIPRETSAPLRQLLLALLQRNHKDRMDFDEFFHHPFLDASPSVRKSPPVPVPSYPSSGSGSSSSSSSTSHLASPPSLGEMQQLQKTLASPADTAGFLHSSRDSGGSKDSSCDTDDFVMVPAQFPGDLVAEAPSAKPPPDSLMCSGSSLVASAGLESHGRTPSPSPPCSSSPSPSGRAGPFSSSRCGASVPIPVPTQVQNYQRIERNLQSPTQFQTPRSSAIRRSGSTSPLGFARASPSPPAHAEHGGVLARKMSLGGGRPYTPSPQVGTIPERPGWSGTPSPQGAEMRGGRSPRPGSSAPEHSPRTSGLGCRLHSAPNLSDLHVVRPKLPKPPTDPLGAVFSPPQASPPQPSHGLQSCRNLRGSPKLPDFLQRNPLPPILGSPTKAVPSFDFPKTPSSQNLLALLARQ
Description: ULK1 inhibition assay (ADP Glo). To be noted: Table 1; 25 uM ATP, MBP substrate, one hour. Format: biochemical. The method, then: Illustrative compounds of Formula I and related analogs are shown in Table 1 (along with their respective IC50 values for ULK1 inhibition assays). For ADP Glo assay, IC50s are represented nM, with A representing IC50<1 nM, B representing 10 nM>IC50>1 nM, and C representing IC50>10 nM. NT indicates the compound was not tested. ULK1 inhibition assays were performed in a 5 uL reaction volume containing 2 ug/mL recombinant human ULK1 protein (1-649, SignalChem #U01-11G) and 80 ug/mL myelin basic protein (MBP, Sigma-Aldrich #M1891) in the presence of 25 uM ATP (Sigma-Aldrich A7699). ULK 1 inhibition was assessed after one hour. Compounds were tested in triplicate in a 16-dose IC50 mode with 3-fold serial dilution and a starting dose of 30 uM. Staurosporine, a non-selective protein kinase inhibitor, was used in the assay as a positive control.
According to another embodiment, the present disclosure provides methods of producing the above-defined compounds. The compounds may be synthesized using any suitable techniques. Advantageously, these compounds are conveniently synthesized from readily available starting materials. Synthetic chemistry transformations and methodologies useful in synthesizing the compounds described herein are known in the art and include, for example, those described in R. Larock, Comprehensive Organic Transformations (1989); T. W. Greene and P. G. M. Wuts, Protective Groups in Organic Synthesis, 2d. Ed. (1991); L. Fieser and M. Fieser, Fieser and Fieser's Reagents for Organic Synthesis (1994); and L. Paquette, ed., Encyclopedia of Reagents for Organic Synthesis (1995).). In general, synthesis and measurements of ULK1 inhibitory activity of the compounds described herein was performed using method analogous to those previously described in PCT International Application No. PCT/US2015/046777 which is hereby incorporated by reference in its entirety.
For orientation: ADP-Glo first removes unused ATP, then detects ADP through luciferase.
For orientation: IC50 means the concentration at which inhibition is half-maximal. For `CC(C)(C)OC(=O)C1Cc2ccc(Nc3ncc(C(F)(F)F)c(NC4CC4)n3)cc2C1` (stereo not shown) [Compound A54], the IC50 fell in the range of 1 to 10 nM.
The value for `CC(=O)CCN1CCc2cc(Nc3ncc(C(F)(F)F)c(NC4CC4)n3)ccc2C1` [Compound A56] was < 1 nM.
With `NC(=O)CCN1CCc2cc(Nc3ncc(C(F)(F)F)c(NC4CC4)n3)ccc2C1` [Compound A58] the figure was < 1 nM; with `Nc1cnc(Nc2ccc3c(c2)CCNC3)nc1NC1CC1` [Compound A59], > 10 nM.
With `CCN1CCc2cc(Nc3ncc(C(F)(F)F)c(NC4CC4)n3)ccc2C1` [Compound A60] the figure was 1 to 10 nM; with `CN1CCc2cc(Nc3ncc(N)c(NC4CC4)n3)ccc2C1` [Compound A61], > 10 nM; with `Cn1cc(CN2CCc3cc(Nc4ncc(C(F)(F)F)c(NC5CC5)n4)ccc3C2)cn1` [Compound A62], < 1 nM.
Take `Cn1nccc1CN1CCc2cc(Nc3ncc(C(F)(F)F)c(NC4CC4)n3)ccc2C1` [Compound A63]: the IC50 was < 1 nM.
For `CN1CCc2cc(Nc3ncc(C(N)=O)c(NC4CC4)n3)ccc2C1` [Compound A64], the IC50 was < 1 nM.
For the compound `CN1CCc2cc(Nc3ncc(Br)c(NC4CC4)n3)ccc2C1` [Compound A65], the IC50 was < 1 nM.
With `O=C(CCO)N1CCc2cc(Nc3ncc(C(F)(F)F)c(NC4CC4)n3)ccc2C1` [Compound A68] the figure was < 1 nM; with `CC(=O)CN1CCc2cc(Nc3ncc(C(F)(F)F)c(NC4CC4)n3)ccc2C1` [Compound A69], < 1 nM; with `CC(O)CN1CCc2cc(Nc3ncc(C(F)(F)F)c(NC4CC4)n3)ccc2C1` (stereo not shown) [Compound A70], < 1 nM.
With `CN(C)c1ccc(CN2CCc3cc(Nc4ncc(C(F)(F)F)c(NC5CC5)n4)ccc3C2)cc1` [Compound A71], the concentration for half-maximal inhibition (IC50) was < 1 nM.
In the case of `CN1CCc2cc(Nc3nccc(NC4CC4)n3)ccc2C1` [Compound A72], the IC50 is > 10 nM.
With `CN1CCC(N2CCc3cc(Nc4ncc(C(F)(F)F)c(NC5CC5)n4)ccc3C2)CC1` [Compound A73] the figure was < 1 nM; with `CN(C)C(=O)CN1CCc2cc(Nc3ncc(C(F)(F)F)c(NC4CC4)n3)ccc2C1` [Compound A74], < 1 nM; with `FC(F)(F)c1cnc(Nc2ccc3c(c2)CCN(Cc2ccncn2)C3)nc1NC1CC1` [Compound A75], < 1 nM.
With `NS(=O)(=O)N1CCc2ccc(Nc3ncc(C(F)(F)F)c(NC4CC4)n3)cc2C1` [Compound A76] the figure was 1 to 10 nM.
For `Oc1ccc(CN2CCc3cc(Nc4ncc(C(F)(F)F)c(NC5CC5)n4)ccc3C2)cc1` [Compound A77], the IC50 was < 1 nM.
The value for `FC(F)(F)c1cnc(Nc2ccc3c(c2)CN(CCS)CC3)nc1NC1CC1` [Compound A78] was < 1 nM.
With `FC(F)(F)c1cnc(Nc2ccc3c(c2)CN(CC2OCCO2)CC3)nc1NC1CC1` [Compound A79] the figure was 1 to 10 nM; with `NOCC(=O)N1CCc2cc(Nc3ncc(C(F)(F)F)c(NC4CC4)n3)ccc2C1` [Compound A80], 1 to 10 nM; with `CSCCN1CCc2ccc(Nc3ncc(C(F)(F)F)c(NC4CC4)n3)cc2C1` [Compound A81], < 1 nM.
With `FC(F)(F)c1cnc(Nc2ccc3c(c2)CN(Cc2ccncc2)CC3)nc1NC1CC1` [Compound A82] the figure was < 1 nM; with `NCC(=O)N1CCc2ccc(Nc3ncc(C(F)(F)F)c(NC4CC4)n3)cc2C1` [Compound A83], 1 to 10 nM; with `O=C(O)c1cnc(Nc2ccc3c(c2)CCNC3)nc1NC1CC1` [Compound A85], > 10 nM.
With `COCCN1CCc2ccc(Nc3ncc(C(F)(F)F)c(NC4CC4)n3)cc2C1` [Compound A86], the IC50 was < 1 nM.
The value for `COC(=O)CC(=O)N1CCc2ccc(Nc3ncc(C(F)(F)F)c(NC4CC4)n3)cc2C1` [Compound A87] was 1 to 10 nM; that for `O=C(O)CCN1CCc2ccc(Nc3ncc(C(F)(F)F)c(NC4CC4)n3)cc2C1` [Compound A88] was 1 to 10 nM; that for `FC(F)(F)c1cnc(Nc2ccc3c(c2)CN(Cc2ccco2)CC3)nc1NC1CC1` [Compound A89] was 1 to 10 nM.
Take `O=C(C1CCN1)N1CCc2cc(Nc3ncc(C(F)(F)F)c(NC4CC4)n3)ccc2C1` (stereo not shown) [Compound A90]: the IC50 lay in the range of 1 to 10 nM.
For the compound `CS(=O)(=O)CCN1CCc2cc(Nc3ncc(C(F)(F)F)c(NC4CC4)n3)ccc2C1` [Compound A91], the IC50 lay within 1 to 10 nM.
In the case of `FC(F)(F)c1cnc(Nc2ccc3c(c2)CCN(Cc2ccoc2)C3)nc1NC1CC1` [Compound A92], the 50% inhibitory concentration (IC50) lay in the range of 1 to 10 nM.
The value for `FC(F)(F)c1cnc(Nc2ccc3c(c2)CCN(Cc2ccc[nH]2)C3)nc1NC1CC1` [Compound A93] was 1 to 10 nM.
Turning to `FC(F)(F)c1cnc(Nc2ccc3c(c2)CN(Cc2cc[nH]c2)CC3)nc1NC1CC1` [Compound A94], the IC50 was 1 to 10 nM.
With `FC(F)(F)c1cnc(Nc2ccc3c(c2)CN(Cc2ccccc2)CC3)nc1NC1CC1` [Compound A95], the 50% inhibitory concentration (IC50) is > 10 nM.
As to `N[C@@H](CO)C(=O)N1CCc2ccc(Nc3ncc(C(F)(F)F)c(NC4CC4)n3)cc2C1` [Compound A96], the IC50 was > 10 nM.
The value for `FC(F)(F)c1cnc(Nc2ccc3c(c2)CN(CCN2CCOCC2)CC3)nc1NC1CC1` [Compound A97] was 1 to 10 nM.
With `CC(=O)N1CCc2ccc(Nc3ncc(C(F)(F)F)c(NC4CC4)n3)cc2C1` [Compound A98] the figure was 1 to 10 nM; with `CN1CCN(C(=O)N2CCc3ccc(Nc4ncc(C(F)(F)F)c(NC5CC5)n4)cc3C2)CC1` [Compound A99], 1 to 10 nM.
As for `O=C(CN1CCc2ccc(Nc3ncc(C(F)(F)F)c(NC4CC4)n3)cc2C1)N1CCOCC1` [Compound A100], the IC50 was < 1 nM.
The value for `FC(F)(F)c1cnc(Nc2ccc3c(c2)CN(Cc2ccoc2)CC3)nc1NC1CC1` [Compound A101] was < 1 nM; that for `FC(F)(F)c1cnc(Nc2ccc3c(c2)CN(C2COC2)CC3)nc1NC1CC1` [Compound A102] was 1 to 10 nM; that for `NCCN1CCc2ccc(Nc3ncc(C(F)(F)F)c(NC4CC4)n3)cc2C1` [Compound A103] was 1 to 10 nM.
`CS(=O)(=O)N1CCc2ccc(Nc3ncc(C(F)(F)F)c(NC4CC4)n3)cc2C1` [Compound A104]: the IC50 was in the range of 1 to 10 nM.
`FC(F)(F)c1cnc(Nc2ccc3c(c2)CN(Cc2c[nH]cn2)CC3)nc1NC1CC1` [Compound A105]: the IC50 was 1 to 10 nM.
As to `OCCN1CCc2ccc(Nc3ncc(C(F)(F)F)c(NC4CC4)n3)cc2C1` [Compound A106], the IC50 is 1 to 10 nM.
For `FC(F)(F)c1cnc(Nc2ccc3c(c2)CN(CC2CCNC2)CC3)nc1NC1CC1` (stereo not shown) [Compound A107], the IC50 was > 10 nM.
`FC(F)(F)c1cnc(Nc2ccc3c(c2)CN(Cc2cncnc2)CC3)nc1NC1CC1` [Compound A108]: the IC50 was < 1 nM.
Turning to `FC(F)(F)c1cnc(Nc2ccc3c(c2)CN(Cc2ccncn2)CC3)nc1NC1CC1` [Compound A109], the IC50 was < 1 nM.
Regarding `FC(F)(F)c1cnc(Nc2ccc3c(c2)CN(C2CNC2)CC3)nc1NC1CC1` [Compound A110], the IC50 is < 1 nM.
Consider `Cn1cnc(CN2CCc3ccc(Nc4ncc(C(F)(F)F)c(NC5CC5)n4)cc3C2)c1` [Compound A111], for which the IC50 was in the range of 1 to 10 nM.
Regarding `Nc1ccc(CN2CCc3cc(Nc4ncc(C(F)(F)F)c(NC5CC5)n4)ccc3C2)cc1` [Compound A112], the IC50 was > 10 nM.
The value for `COc1ccc(CN2CCc3cc(Nc4ncc(C(F)(F)F)c(NC5CC5)n4)ccc3C2)cc1` [Compound A113] was < 1 nM; that for `CN1CCC(N2CCc3cc(Nc4ncc(C(F)(F)F)c(NC5CC5)n4)ccc3C2)C1` (stereo not shown) [Compound A114] was < 1 nM.
With `O=C(CN1CCOCC1)N1CCc2cc(Nc3ncc(C(F)(F)F)c(NC4CC4)n3)ccc2C1` [Compound A115] the figure was 1 to 10 nM; with `O=S(=O)(C1CC1)N1CCc2cc(Nc3ncc(C(F)(F)F)c(NC4CC4)n3)ccc2C1` [Compound A116], 1 to 10 nM.
